Results from ChEMBL document CHEMBL5291721, “A preclinical secondary pharmacology resource illuminates target-adverse drug reaction associations of marketed drugs” (Nat Commun, 2023).

Legend:
[1] = target: T1, Muscarinic acetylcholine receptor M2 (Homo sapiens, UniProt P08172)
T1 sequence (P08172 whole entry): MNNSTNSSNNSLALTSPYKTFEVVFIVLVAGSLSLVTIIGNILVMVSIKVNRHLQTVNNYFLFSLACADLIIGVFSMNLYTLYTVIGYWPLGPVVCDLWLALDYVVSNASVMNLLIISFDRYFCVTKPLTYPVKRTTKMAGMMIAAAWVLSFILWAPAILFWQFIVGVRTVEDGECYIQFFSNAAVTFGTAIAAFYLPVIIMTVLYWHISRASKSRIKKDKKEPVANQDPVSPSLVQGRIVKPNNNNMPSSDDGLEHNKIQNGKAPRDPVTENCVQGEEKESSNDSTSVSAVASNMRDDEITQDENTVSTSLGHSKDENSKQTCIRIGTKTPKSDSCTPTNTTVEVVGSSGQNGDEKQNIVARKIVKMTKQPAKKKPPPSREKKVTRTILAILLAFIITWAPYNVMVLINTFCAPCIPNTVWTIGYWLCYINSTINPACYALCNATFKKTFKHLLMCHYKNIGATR

Progesterone receptor = target: T2, Progesterone receptor (Homo sapiens, UniProt P06401)
T2 sequence (P06401 whole entry): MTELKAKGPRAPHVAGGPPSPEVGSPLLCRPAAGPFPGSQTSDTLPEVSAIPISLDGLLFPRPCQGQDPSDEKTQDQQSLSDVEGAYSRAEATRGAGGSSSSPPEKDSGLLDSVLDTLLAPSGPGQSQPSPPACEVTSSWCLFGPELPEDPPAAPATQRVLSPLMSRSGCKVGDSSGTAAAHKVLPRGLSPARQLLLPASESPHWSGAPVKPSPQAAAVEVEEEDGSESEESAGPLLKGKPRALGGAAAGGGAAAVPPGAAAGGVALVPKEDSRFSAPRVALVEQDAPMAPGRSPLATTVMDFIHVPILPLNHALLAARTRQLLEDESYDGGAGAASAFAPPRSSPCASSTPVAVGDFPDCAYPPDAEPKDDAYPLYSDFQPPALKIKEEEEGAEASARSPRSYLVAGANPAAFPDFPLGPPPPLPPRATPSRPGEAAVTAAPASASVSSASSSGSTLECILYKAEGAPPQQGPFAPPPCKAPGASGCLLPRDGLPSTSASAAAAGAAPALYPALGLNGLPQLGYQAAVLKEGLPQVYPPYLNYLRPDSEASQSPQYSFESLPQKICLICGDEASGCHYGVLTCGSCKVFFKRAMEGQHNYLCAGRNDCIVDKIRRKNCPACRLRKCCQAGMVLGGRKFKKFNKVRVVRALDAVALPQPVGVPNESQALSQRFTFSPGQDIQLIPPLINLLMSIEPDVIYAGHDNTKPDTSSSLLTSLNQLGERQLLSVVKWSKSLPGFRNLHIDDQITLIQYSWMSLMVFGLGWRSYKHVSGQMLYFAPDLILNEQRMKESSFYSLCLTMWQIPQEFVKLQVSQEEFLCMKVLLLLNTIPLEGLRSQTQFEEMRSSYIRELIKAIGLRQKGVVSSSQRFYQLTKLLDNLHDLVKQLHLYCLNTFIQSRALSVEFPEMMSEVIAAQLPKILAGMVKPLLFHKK

[2] = target: 3',5'-cyclic-AMP phosphodiesterase 4A (Homo sapiens, UniProt P27815); assay type: functional
Sequence of 3',5'-cyclic-AMP phosphodiesterase 4A (P27815 whole entry): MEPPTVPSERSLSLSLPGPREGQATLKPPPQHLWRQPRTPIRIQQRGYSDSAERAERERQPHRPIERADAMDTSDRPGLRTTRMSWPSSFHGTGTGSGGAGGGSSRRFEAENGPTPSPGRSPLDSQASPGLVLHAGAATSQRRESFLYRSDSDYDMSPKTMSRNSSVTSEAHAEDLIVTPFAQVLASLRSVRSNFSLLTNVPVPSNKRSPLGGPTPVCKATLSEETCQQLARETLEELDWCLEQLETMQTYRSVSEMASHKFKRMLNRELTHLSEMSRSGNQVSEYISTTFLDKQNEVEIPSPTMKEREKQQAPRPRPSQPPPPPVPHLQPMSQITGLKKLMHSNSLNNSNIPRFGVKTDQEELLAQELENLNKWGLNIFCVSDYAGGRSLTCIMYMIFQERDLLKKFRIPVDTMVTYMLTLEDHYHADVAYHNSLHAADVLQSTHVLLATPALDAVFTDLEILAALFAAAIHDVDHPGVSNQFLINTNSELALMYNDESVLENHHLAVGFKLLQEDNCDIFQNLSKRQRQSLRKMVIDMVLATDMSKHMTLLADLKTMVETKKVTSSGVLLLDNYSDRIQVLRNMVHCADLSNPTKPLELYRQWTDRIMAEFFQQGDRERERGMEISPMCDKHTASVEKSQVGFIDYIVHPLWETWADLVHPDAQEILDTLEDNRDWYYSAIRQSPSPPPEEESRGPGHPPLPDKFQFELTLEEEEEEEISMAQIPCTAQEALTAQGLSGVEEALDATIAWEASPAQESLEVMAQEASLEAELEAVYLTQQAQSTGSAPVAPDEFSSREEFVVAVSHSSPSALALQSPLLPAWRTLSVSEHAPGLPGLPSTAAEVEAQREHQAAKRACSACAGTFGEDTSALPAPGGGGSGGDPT

[3] = target: Prostaglandin G/H synthase 1 (Homo sapiens, UniProt P23219); assay type: functional
Sequence of Prostaglandin G/H synthase 1 (P23219 whole entry): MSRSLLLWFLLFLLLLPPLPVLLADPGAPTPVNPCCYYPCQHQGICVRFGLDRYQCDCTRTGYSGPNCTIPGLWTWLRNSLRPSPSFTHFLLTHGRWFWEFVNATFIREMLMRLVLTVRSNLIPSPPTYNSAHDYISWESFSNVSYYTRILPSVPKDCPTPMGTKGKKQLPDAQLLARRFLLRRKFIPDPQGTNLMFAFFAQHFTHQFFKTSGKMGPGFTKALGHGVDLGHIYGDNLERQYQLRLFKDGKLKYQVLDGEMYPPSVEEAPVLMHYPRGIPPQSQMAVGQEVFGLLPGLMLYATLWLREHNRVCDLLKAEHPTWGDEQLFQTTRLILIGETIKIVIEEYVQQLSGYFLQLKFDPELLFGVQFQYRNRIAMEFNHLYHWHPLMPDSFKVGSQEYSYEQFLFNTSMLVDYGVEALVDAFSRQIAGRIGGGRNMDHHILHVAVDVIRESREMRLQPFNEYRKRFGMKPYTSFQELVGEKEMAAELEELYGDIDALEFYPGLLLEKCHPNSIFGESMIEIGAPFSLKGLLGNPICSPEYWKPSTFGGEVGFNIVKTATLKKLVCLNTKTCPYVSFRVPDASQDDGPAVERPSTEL

[4] = target: Sodium-dependent noradrenaline transporter (Homo sapiens, UniProt P23975)
Sequence of Sodium-dependent noradrenaline transporter (P23975 whole entry): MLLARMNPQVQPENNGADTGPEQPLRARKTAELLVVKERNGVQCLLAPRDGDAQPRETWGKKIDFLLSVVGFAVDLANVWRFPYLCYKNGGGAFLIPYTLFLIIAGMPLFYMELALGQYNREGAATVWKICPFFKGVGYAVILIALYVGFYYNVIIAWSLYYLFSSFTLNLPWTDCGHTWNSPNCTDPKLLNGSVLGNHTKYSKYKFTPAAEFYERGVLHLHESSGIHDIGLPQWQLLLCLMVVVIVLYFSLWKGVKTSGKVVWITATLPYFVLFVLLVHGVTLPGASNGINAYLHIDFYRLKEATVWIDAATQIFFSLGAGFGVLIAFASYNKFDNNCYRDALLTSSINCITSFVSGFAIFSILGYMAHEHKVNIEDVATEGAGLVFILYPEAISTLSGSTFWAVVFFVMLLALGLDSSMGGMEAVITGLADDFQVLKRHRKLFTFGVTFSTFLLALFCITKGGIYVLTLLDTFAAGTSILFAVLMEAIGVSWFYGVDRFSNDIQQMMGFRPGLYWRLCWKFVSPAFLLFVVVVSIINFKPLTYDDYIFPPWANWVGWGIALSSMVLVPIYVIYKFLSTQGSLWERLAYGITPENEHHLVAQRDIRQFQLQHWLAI

Thromboxane A2 receptor = target: T3, Thromboxane A2 receptor (Homo sapiens, UniProt P21731); assay type: functional, cell-based
T3 sequence (P21731 whole entry): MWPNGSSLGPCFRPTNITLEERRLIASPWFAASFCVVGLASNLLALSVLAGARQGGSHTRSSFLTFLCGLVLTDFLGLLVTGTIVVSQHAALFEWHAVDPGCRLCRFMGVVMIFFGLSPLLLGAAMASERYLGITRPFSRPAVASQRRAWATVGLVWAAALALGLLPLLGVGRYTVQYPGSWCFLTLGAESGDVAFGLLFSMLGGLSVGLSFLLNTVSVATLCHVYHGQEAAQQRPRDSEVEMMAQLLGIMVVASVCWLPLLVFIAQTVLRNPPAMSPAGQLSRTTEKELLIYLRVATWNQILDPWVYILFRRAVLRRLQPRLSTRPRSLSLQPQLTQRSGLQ

Estrogen receptor = target: T4, Estrogen receptor (Homo sapiens, UniProt P03372)
T4 sequence (P03372 whole entry): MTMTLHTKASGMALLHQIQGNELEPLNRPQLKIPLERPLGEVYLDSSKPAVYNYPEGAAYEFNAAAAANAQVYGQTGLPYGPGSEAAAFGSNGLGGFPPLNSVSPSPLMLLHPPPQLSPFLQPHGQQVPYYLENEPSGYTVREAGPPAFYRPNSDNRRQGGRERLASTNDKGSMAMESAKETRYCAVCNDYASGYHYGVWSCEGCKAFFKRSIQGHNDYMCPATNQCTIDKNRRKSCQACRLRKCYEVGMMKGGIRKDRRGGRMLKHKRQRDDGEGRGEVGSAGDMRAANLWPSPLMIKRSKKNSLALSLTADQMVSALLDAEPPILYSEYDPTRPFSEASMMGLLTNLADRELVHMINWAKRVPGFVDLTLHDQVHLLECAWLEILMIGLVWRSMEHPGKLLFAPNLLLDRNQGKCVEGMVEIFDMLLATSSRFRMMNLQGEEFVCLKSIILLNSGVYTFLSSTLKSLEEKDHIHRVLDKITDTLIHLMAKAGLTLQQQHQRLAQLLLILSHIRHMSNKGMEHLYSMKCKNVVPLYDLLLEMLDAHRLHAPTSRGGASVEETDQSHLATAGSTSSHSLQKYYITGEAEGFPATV

[5] = target: Vascular endothelial growth factor receptor 2 (Homo sapiens, UniProt P35968); assay type: functional
Sequence of Vascular endothelial growth factor receptor 2 (P35968 whole entry): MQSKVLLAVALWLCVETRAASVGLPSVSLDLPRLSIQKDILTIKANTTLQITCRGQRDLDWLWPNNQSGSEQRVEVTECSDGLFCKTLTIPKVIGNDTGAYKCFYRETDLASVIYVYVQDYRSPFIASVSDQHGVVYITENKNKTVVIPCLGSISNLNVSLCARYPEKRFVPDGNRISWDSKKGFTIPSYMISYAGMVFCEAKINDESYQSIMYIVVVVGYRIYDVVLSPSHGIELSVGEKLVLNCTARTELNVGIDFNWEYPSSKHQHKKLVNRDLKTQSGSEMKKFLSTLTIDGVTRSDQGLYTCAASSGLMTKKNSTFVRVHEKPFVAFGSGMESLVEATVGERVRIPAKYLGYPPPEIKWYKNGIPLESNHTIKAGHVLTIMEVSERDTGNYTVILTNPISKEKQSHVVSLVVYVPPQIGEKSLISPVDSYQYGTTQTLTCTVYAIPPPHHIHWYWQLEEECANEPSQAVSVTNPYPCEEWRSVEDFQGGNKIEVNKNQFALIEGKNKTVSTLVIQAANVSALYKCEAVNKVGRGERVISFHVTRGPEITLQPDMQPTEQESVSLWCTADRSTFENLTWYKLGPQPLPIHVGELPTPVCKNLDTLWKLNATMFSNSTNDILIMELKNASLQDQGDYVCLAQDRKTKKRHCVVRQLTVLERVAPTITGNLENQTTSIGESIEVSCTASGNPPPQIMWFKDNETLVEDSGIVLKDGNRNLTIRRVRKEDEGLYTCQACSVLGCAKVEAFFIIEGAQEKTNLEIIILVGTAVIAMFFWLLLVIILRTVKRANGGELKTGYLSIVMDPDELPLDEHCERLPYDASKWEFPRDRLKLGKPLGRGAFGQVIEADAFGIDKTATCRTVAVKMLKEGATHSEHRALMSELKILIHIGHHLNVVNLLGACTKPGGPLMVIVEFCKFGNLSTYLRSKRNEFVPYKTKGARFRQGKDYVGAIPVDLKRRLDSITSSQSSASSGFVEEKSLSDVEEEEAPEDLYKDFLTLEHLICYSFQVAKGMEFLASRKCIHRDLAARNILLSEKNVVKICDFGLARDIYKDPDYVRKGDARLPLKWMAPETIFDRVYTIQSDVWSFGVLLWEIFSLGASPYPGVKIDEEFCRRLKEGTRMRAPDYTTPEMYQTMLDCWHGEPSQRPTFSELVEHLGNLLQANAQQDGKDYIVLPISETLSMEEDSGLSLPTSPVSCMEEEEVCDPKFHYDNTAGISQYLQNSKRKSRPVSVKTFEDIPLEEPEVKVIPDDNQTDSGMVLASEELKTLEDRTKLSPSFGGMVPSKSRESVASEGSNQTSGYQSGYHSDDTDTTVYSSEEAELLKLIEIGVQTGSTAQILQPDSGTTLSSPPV
Note: assay procedure not described here.

SMILES	AC50 [1]	AC50 (Progesterone receptor)	AC50 [2]	AC50 [3]	AC50 [4]	AC50 (Thromboxane A2 receptor)	AC50 (Estrogen receptor)	AC50 [5]
C[C@@H]1CN(c2c(F)c(N)c3c(=O)c(C(=O)O)cn(C4CC4)c3c2F)C[C@H](C)N1 [SPARFLOXACIN]	> 30 µM	> 30 µM	> 30 µM	> 30 µM	> 30 µM	> 30 µM	> 30 µM	> 30 µM
COc1ncnc(NS(=O)(=O)c2ccc(N)cc2)c1OC [SULFADOXINE]	> 30 µM	> 30 µM	> 30 µM	> 30 µM	> 30 µM	> 30 µM	22.7 µM	> 30 µM
[H]/N=C(/N)NS(=O)(=O)c1ccc(N)cc1 [SULFAGUANIDINE]	> 30 µM	> 30 µM	> 30 µM	> 30 µM	> 30 µM	> 30 µM	> 30 µM	> 30 µM
